US12599134B2, “Herbicidal compositions comprising acetochlor” (BASF SE, priority 2024, dated 2026)

Key:
emerged weeds [1] = assay: Post-emergence application in greenhouse trials (scale 0 to 100; expected value by Colby); type: in vivo
Procedure: (§1) In the examples below, using the method of S. R. Colby (1967) “Calculating synergistic and antagonistic responses of herbicide combinations”, Weeds 15, p. 22ff., the value E, which is expected if the activity of the individual active compounds is only additive, was calculated:
(§2) [formula] • where • X=percent activity using active herbicide A at an application rate a; • Y=percent activity using active herbicide B (e.g. acetochlor) at an application rate b; • E=expected activity (in %) by A+B at application rates a+b.
(§3) If the value found experimentally is higher than the value E calculated according to Colby, a synergistic effect is present.
The culture containers used were plastic pots containing loamy sand with approximately 3.0% of humus as substrate. The seeds of the test plants were sown separately for each species.
[…] To this end, the test plants were either sown directly, and grown in the same containers, or they were first grown separately as seedlings and transplanted into the test containers a few days prior to treatment.
Depending on the species, the plants were kept at 10-25° C. and 20-35° C., respectively. The test period extended over 2 to 4 weeks. During this time, the plants were tended and their response to the individual treatments was evaluated.
(§4) Evaluation was carried out using a scale from 0 to 100. 100 means no emergence of the plants, or complete destruction of at least the above-ground parts, and 0 means no damage or normal course of growth. A good herbicidal activity is given at values of at least 70, and very good herbicidal activity is given at values of at least 85.
Herbicide A-1 and acetochlor were, together with addition of 0.5% MSO (methylated sed oil) as adjuvant, formulated in water as distribution medium (water volume 200 l/ha) and sprayed with commercial flat fan nozzles.
Herbicide A-1, acetochlor and mesotrione were, together with addition of 0.5 v/v % MSO (methylated sed oil) as adjuvant, formulated in water as distribution medium (water volume 200 l/ha) and sprayed with commercial flat fan nozzles.
Herbicide A-1, acetochlor and topramezone were, together with addition of 0.5 v/v % MSO (methylated sed oil) as adjuvant, formulated in water as distribution medium (water volume 200 l/ha) and sprayed with commercial flat fan nozzles.

emerged weeds [2] = assay: Post-emergence application in field trials (expected value by Colby); type: in vivo
Procedure: as §1, §2, §3, §4
Herbicide A-1 and acetochlor were, together with addition of 0.25% MSO (methylated sed oil) as adjuvant, formulated in water as distribution medium (water volume 200 l/ha) and sprayed with commercial flat fan nozzles.

CCOCN(C(=O)CCl)c1c(C)cccc1CC [B, acetochlor]
% Herbicidal activity (emerged weeds [1]; ABUTH, growth stage 15, 7 DAT, g ai/ha: A-1 0.5, B 200, C-24 50): 0%
% Herbicidal activity (emerged weeds [1]; ABUTH, growth stage 15, 7 DAT, g ai/ha: A-1 0.5, B 200, C-25 3.125): 0%
% Herbicidal activity (emerged weeds [1]; ABUTH, growth stage 15, 21 DAT, g ai/ha: A-1 0.25, B 200, C-24 50): 0%
% Herbicidal activity (emerged weeds [1]; AVEFA, growth stage 11, 7 DAT, g ai/ha: A-1 2, B 200, C-25 3.125): 0%
% Herbicidal activity (emerged weeds [1]; AVEFA, growth stage 11, 21 DAT, g ai/ha: A-1 2, B 200, C-24 50): 0%
% Herbicidal activity (emerged weeds [1]; AVEFA, growth stage 11, 21 DAT, g ai/ha: A-1 2, B 200, C-25 3.125): 0%
% Herbicidal activity (emerged weeds [1]; AVEFA, growth stage 12, 7 DAT, g ai/ha: A-1 2, B 400): 0%
% Herbicidal activity (emerged weeds [1]; AVEFA, growth stage 12, 19 DAT, g ai/ha: A-1 2, B 400): 0%
% Herbicidal activity (emerged weeds [1]; BRADC, growth stage 11, 21 DAT, g ai/ha: A-1 2, B 200, C-25 3.125): 5%
% Herbicidal activity (emerged weeds [1]; COMBE, growth stage 13, 21 DAT, g ai/ha: A-1 1, B 200, C-24 50): 5%
% Herbicidal activity (emerged weeds [1]; COMBE, growth stage 13, 21 DAT, g ai/ha: A-1 1, B 200, C-25 3.125): 5%
% Herbicidal activity (emerged weeds [1]; ECHCG, growth stage 12, 21 DAT, g ai/ha: A-1 2, B 200, C-24 50): 5%
% Herbicidal activity (emerged weeds [1]; ECHCG, growth stage 12, 21 DAT, g ai/ha: A-1 2, B 200, C-25 3.125): 5%
% Herbicidal activity (emerged weeds [1]; ECHCG, growth stage 13, 7 DAT, g ai/ha: A-1 0.5, B 400): 10%
% Herbicidal activity (emerged weeds [1]; ECHCG, growth stage 13, 19 DAT, g ai/ha: A-1 0.5, B 400): 60%
% Herbicidal activity (emerged weeds [1]; ELEIN, growth stage 14, 7 DAT, g ai/ha: A-1 2, B 400): 0%
% Herbicidal activity (emerged weeds [1]; ERICA, growth stage 19, 7 DAT, g ai/ha: A-1 2, B 200, C-25 3.125): 15%
% Herbicidal activity (emerged weeds [1]; GLXMA, growth stage 18, 7 DAT, g ai/ha: A-1 1, B 200, C-25 3.125): 0%
% Herbicidal activity (emerged weeds [1]; KCHSC, growth stage 29, 21 DAT, g ai/ha: A-1 1, B 200, C-25 3.125): 0%
% Herbicidal activity (emerged weeds [1]; KCHSC, growth stage 29, 21 DAT, g ai/ha: A-1 2, B 200, C-25 3.125): 0%
% Herbicidal activity (emerged weeds [1]; LOLMU, growth stage 11, 7 DAT, g ai/ha: A-1 2, B 200, C-25 3.125): 0%
% Herbicidal activity (emerged weeds [1]; LOLMU, growth stage 11, 21 DAT, g ai/ha: A-1 2, B 200, C-25 3.125): 0%
% Herbicidal activity (emerged weeds [1]; ZEAMX, growth stage 12, 21 DAT, g ai/ha: A-1 2, B 200, C-24 50): 5%
% Herbicidal activity (emerged weeds [1]; ZEAMX, growth stage 12, 21 DAT, g ai/ha: A-1 2, B 200, C-25 3.125): 5%
% Herbicidal activity (emerged weeds [2]; AMARE, growth stage 31-49, height 10-12 cm, 7 DAT, g ai/ha: A-1 12.5, B 1050): 40%
% Herbicidal activity (emerged weeds [2]; AMARE, growth stage 31-49, height 10-12 cm, 21 DAT, g ai/ha: A-1 12.5, B 1050): 25%
% Herbicidal activity (emerged weeds [2]; DIGSA, growth stage 22, height 10-15 cm, 7 DAT, g ai/ha: A-1 12.5, B 1050): 10%
% Herbicidal activity (emerged weeds [2]; DIGSA, growth stage 22, height 10-15 cm, 21 DAT, g ai/ha: A-1 12.5, B 1050): 10%
% Herbicidal activity (emerged weeds [2]; DIGSA, growth stage 22, height 10-15 cm, 42 DAT, g ai/ha: A-1 12.5, B 1050): 10%
% Herbicidal activity (emerged weeds [2]; ECHCG, growth stage 22-23, height 19-30 cm, 7 DAT, g ai/ha: A-1 12.5, B 1050): 0%
% Herbicidal activity (emerged weeds [2]; ECHCG, growth stage 22-23, height 19-30 cm, 7 DAT, g ai/ha: A-1 18, B 1050): 0%
% Herbicidal activity (emerged weeds [2]; ECHCG, growth stage 22-23, height 19-30 cm, 21 DAT, g ai/ha: A-1 12.5, B 1050): 0%
% Herbicidal activity (emerged weeds [2]; ECHCG, growth stage 22-23, height 19-30 cm, 21 DAT, g ai/ha: A-1 18, B 1050): 0%
% Herbicidal activity (emerged weeds [2]; ECHCG, growth stage 22-23, height 19-30 cm, 42 DAT, g ai/ha: A-1 12.5, B 1050): 0%
% Herbicidal activity (emerged weeds [2]; ECHCG, growth stage 22-23, height 19-30 cm, 42 DAT, g ai/ha: A-1 18, B 1050): 0%
% Herbicidal activity (emerged weeds [2]; GLXMA, growth stage 12-13, height 7-11 cm, 42 DAT, g ai/ha: A-1 18, B 1050): 20%
% Herbicidal activity (emerged weeds [2]; HORVW, growth stage 23-29, height 20-25 cm, 21 DAT, g ai/ha: A-1 12.5, B 1050): 10%
% Herbicidal activity (emerged weeds [2]; HORVW, growth stage 23-29, height 20-25 cm, 21 DAT, g ai/ha: A-1 18, B 1050): 10%
% Herbicidal activity (emerged weeds [2]; HORVW, growth stage 23-29, height 20-25 cm, 28 DAT, g ai/ha: A-1 12.5, B 1050): 10%
% Herbicidal activity (emerged weeds [2]; HORVW, growth stage 23-29, height 20-25 cm, 28 DAT, g ai/ha: A-1 18, B 1050): 10%
% Herbicidal activity (emerged weeds [2]; ZEAMX, growth stage 15-16, height 50-60 cm, 7 DAT, g ai/ha: A-1 12.5, B 1050): 8%
% Herbicidal activity (emerged weeds [2]; ZEAMX, growth stage 15-16, height 50-60 cm, 21 DAT, g ai/ha: A-1 12.5, B 1050): 0%
% Herbicidal activity (emerged weeds [2]; ZEAMX, growth stage 15-16, height 50-60 cm, 28 DAT, g ai/ha: A-1 12.5, B 1050): 0%
% Herbicidal activity (emerged weeds [2]; ZEAMX, growth stage 15-16, height 50-60 cm, 28 DAT, g ai/ha: A-1 18, B 1050): 0%
